From patent US5260451A, “Substituted pyrrole compounds and use thereof in pharmaceutical compositions” (priority 1989, dated 1993)

molecular target: T1, 5-lipoxygenase (Bos taurus, UniProt F1MQ78); test: inhibition of 5-lipoxygenase (LTB4 formed by calcium-ionophore stimulated bovine granulocytes); format: cell-based; conditions: Table 1
T1 construct: The source for 5-lipoxygenase were bovine granulocytes; endogenous in cells; host or cells: granulocytes isolated from EDTA-anticoagulated bovine blood
T1 sequence (F1MQ78 1-674): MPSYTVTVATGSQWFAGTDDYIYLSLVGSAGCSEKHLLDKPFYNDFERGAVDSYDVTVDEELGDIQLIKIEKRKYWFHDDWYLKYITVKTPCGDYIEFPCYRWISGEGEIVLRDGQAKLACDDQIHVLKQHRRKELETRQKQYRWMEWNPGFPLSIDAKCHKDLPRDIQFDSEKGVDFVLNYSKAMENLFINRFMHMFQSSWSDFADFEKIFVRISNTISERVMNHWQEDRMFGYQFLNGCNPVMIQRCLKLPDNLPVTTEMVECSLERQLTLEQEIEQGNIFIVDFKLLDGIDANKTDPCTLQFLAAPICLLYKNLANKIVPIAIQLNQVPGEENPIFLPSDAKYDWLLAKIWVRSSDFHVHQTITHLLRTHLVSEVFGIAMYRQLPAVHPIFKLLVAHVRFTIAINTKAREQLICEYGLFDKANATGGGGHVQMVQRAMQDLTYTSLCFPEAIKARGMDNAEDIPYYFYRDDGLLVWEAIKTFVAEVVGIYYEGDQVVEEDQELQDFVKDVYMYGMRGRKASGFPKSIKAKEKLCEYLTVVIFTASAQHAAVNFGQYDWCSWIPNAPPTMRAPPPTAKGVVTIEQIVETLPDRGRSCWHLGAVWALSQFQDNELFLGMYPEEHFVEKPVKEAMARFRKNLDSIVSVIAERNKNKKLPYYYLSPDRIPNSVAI
Description: The effectiveness of the compounds of the invention can be determined by means of the inhibition of 5-lipoxygenase or of cyclo-oxygenase. The research was carried out as follows: The source for 5-lipoxygenase were bovine granulocytes which can form leucotrienes just as human granulocytes do. By stimulation with calcium-ionophore (see BIOCHEM. BIOPHYS. ACTA 1984, 795, pp 499-503), mainly LTC4 (leucotriene C4) and LTB4 (leucotriene B4) are formed from endogenous arachidonic acid. The isolation of the granulocytes and the implementation of the enzyme reaction are conventional (see BIOCHEM. BIOPHYS. ACTA 1984, 795 pp 499-503). The blood protected against clotting by EDTA first is centrifuged for that purposed and the thrombotic excess is removed. Following lysis of the erythrocytes with water the lymphocytes and monocytes are separated from the granulocytes by means of a Ficoll gradient. The granulocytes are set to a specific cell number. The enzyme reaction is then begun in the presence or absence of the test substances following the addition of Ca^2+ with calcium ionophore. The synthesis of the leucotrienes is stopped after 5 minutes by adding a mixture of methanol and acetonitrile containing PGB2 as the internal standard and NDGA as the anti-oxidant. Next the samples are diluted in water and processed in the manner described in J. CHROMATOGR. […], 378, pp 208-214. LTB4 is measured at the absorption maximum at 270 nm. The arachidonic acid metabolites are observed present in this research in approximately quantitative manner. Tables 1 and 2 list the test results for the compounds of the invention, The test substances were at concentrations of 10 μM.

Row | Structure (SMILES) | inhibition at 10 µM [%]
1 | O=C(O)CCCCCc1c(-c2ccccc2)c(-c2ccccc2)n2c1CCC2 [(CH2)5 CO2 H, Phenyl, Phenyl, H, H] | 86
2 | CCCCCCc1c(-c2ccccc2)c2n(c1C=CC(=O)O)CCC2 [Phenyl, C6 H13, CHCHCO2 H, H, H, 3-(6-(n-HEXYL)-7-PHENYL-2,3-DIHYDRO-1h-PYRROLIZINE-5-YL)-ACRYLIC ACID] | 82
3 | O=C(O)CCCCc1c(-c2ccccc2)c2n(c1-c1ccccc1)CCC2 [Phenyl, (CH2)4 CO2 H, Phenyl, H, H] | 82
4 | O=C(O)CCCCc1c(-c2ccccc2)c(-c2ccccc2)n2c1CCC2 [(CH2)4 CO2 H, Phenyl, Phenyl, H, H] | 86
5 | CC1(C)Cc2c(-c3ccccc3)c(-c3ccccc3)c(CC(=O)O)n2C1 [Phenyl, Phenyl, CH2 CO2 H, CH3, CH3, (2,2-dimethyl-6,7-diphenyl-2,3-dihydro-1H-pyrrolizine-5-yl)-acetic acid] | 94
6 | O=C(O)/C=C/c1c(-c2ccccc2)c(-c2ccccc2)c2n1CCC2 [Phenyl, Phenyl, CHCHCO2 H, H, H] | 80
7 | O=C(O)CCCCCc1c(-c2ccccc2)c2n(c1-c1ccccc1)CCC2 [Phenyl, (CH2)5 CO2 H, Phenyl, H, H] | 80
8 | CC1(C)Cc2c(CCC(=O)O)c(-c3ccccc3)c(-c3ccccc3)n2C1 [(CH2)2 CO2 H, Phenyl, Phenyl, CH3, CH3] | 93
9 | CC1(C)Cc2c(CCCCCC(=O)O)c(-c3ccccc3)c(-c3ccccc3)n2C1 [(CH2)5 CO2 H, Phenyl, Phenyl, CH3, CH3] | 96
10 | CC1(C)Cc2c(C=CC(=O)O)c(-c3ccccc3)c(-c3ccccc3)n2C1 [CHCHCO2 H, Phenyl, Phenyl, CH3, CH3] | 91

Next, values leading:

Row | inhibition at 10 µM [%] | Structure (SMILES)
11 | 92 | Cc1ccc(-c2c(-c3ccccc3)c3n(c2CCC(=O)O)CCC3)cc1 [Phenyl, p-Tolyl, (CH2)2 CO2 H, H, H]
12 | 94 | O=C(O)CCc1c(-c2cccc3ccccc23)c(-c2ccccc2)c2n1CCC2 [Phenyl, α-naphthyl, (CH2)2 CO2 H, H, H]
13 | 89 | O=C(O)CCc1c(-c2cccc(Cl)c2)c(-c2ccccc2)c2n1CCC2
14 | 98 | O=C(O)CCc1c(-c2ccc(Oc3ccccc3)cc2)c(-c2ccccc2)c2n1CCC2
15 | 98 | O=C(O)CCc1c(-c2ccc(Cl)cc2)c(-c2ccccc2)c2n1CCC2
16 | 91 | CC1(C)Cc2c(-c3ccccc3)c(-c3ccccc3)c(CCC(=O)O)n2C1 [Phenyl, Phenyl, (CH2)2 CO2 H, CH3, CH3]
17 | 91 | COc1ccc(-c2c(-c3ccccc3)c3n(c2CCC(=O)O)CCC3)cc1

same assay, conditions: Table 2

Row | Structure (SMILES) | inhibition at 10 µM [%]
18 | CCCCn1c(C)c(-c2ccccc2)c(-c2ccccc2)c1CCC(=O)O | 94
19 | CCCCCn1c(C)c(-c2ccccc2)c(-c2ccccc2)c1CCC(=O)O | 99
20 | Cc1c(-c2ccccc2)c(-c2ccccc2)c(CCC(=O)O)n1CC(C)(C)C | 97
21 | CCCCCCn1c(C)c(-c2ccccc2)c(-c2ccccc2)c1CCC(=O)O | 99

molecular target: T1, 5-lipoxygenase; test: as above; format: cell-based; conditions: Table 1, 3,3 μM

Row | Structure (SMILES) | inhibition at 3 µM [%]
22 | CC1(C)Cc2c(-c3ccccc3)c(-c3ccc(Oc4ccccc4)cc3)c(CCC(=O)O)n2C1 [3-(2,2-dimethyl-6-(4-phenoxyphenyl)-7-phenyl-2,3-dihydro-1H-pyrrolizine-5-yl) propionic acid] | 98

molecular target: T2, cyclo-oxygenase (Bos taurus, UniProt O62664); test: inhibition of cyclo-oxygenase (12-HHT or prostaglandin E2 formed by calcium-ionophore stimulated bovine thrombocytes); format: cell-based; conditions: Table 1, read-out: INHIBITION % Cyclooxygenase
T2 construct: formed by bovine thrombocytes following addition of calcium ionophore; endogenous in cells; host or cells: thrombocytes isolated from the supernatant of centrifuged bovine blood
T2 sequence (O62664 25-600): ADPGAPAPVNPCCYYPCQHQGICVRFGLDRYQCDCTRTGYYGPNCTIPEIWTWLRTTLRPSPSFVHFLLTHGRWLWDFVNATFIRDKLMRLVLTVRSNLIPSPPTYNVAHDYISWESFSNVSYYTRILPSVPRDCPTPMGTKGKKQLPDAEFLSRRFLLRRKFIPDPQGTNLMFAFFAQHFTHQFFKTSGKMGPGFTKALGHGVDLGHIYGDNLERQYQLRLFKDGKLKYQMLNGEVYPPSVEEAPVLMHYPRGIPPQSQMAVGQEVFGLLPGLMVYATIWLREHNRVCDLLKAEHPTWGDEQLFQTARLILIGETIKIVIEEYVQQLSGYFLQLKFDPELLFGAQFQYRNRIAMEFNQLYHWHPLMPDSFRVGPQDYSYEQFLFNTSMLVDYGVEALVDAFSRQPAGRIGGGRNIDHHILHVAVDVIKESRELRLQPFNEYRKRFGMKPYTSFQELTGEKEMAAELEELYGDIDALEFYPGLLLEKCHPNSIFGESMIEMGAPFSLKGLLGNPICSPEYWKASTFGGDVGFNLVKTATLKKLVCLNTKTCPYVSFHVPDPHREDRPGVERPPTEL
Description: The effectiveness of the compounds of the invention can be determined by means of the inhibition of 5-lipoxygenase or of cyclo-oxygenase. The research was carried out as follows:
In this test the 12-HHT amount of 12-hydroxyheptadecatriene acid or prostaglandin E2 amount formed by bovine thrombocytes following addition of calcium ionophore is determined by uv detection following HPLC separation. Following centrifuging of the bovine blood, the thrombocytes are isolated from the surnatant. The enzyme reaction and the isolation of the formed metabolites take place as when determining the 5-lipoxygenase inhibition, however the incubation time was one minute. The detection of 12 HHT following HPLC separation takes place at 232 nm.
Tables 1 and 2 list the test results for the compounds of the invention, The test substances were at concentrations of 10 μM.

Row | Structure (SMILES) | inhibition at 10 µM [%]
23 | O=C(O)Cc1c(-c2ccccc2)c(-c2ccccc2)c2n1CCC2 [Phenyl, Phenyl, CH2 CO2 H, H, H] | 91
24 | CC1(C)Cc2c(-c3ccccc3)c(-c3ccccc3)c(CC(=O)O)n2C1 [Phenyl, Phenyl, CH2 CO2 H, CH3, CH3, (2,2-dimethyl-6,7-diphenyl-2,3-dihydro-1H-pyrrolizine-5-yl)-acetic acid] | 99
25 | O=C(O)CCc1c(-c2ccc(Oc3ccccc3)cc2)c(-c2ccccc2)c2n1CCC2 | 70
26 | CC1(C)Cc2c(-c3ccccc3)c(-c3ccccc3)c(CCC(=O)O)n2C1 [Phenyl, Phenyl, (CH2)2 CO2 H, CH3, CH3] | 97
